In brackets after ≈: the same amount, converted by molar mass. Several values for one entry are separate records, joined by “and”; a condition that tells them apart may be missing. Equal values may be shown once. Read-outs that look alike come from different tables or passages of the source.
Experiments:
[1] = target: T1, wild-type B. anthracis gyrase (Bacillus anthracis, UniProt A0A6H3A7B1+Q9X3Y6); experiment: biochemical; settings: IC50, inhibition of DNA supercoiling
[2] = target: T2, wild-type B. anthracis topoisomerase IV (Bacillus anthracis, UniProt A0A6H3AG07+A0AAC8SCF4); experiment: biochemical; settings: IC50, inhibition of DNA decatenation
[3] = test system: B. anthracis (Ames strain); design: species or system BALB/c mice; settings: mouse, in vivo
[4] = test system: 30-strain panel of B. anthracis; experiment: microbe, parasite or virus in culture; type: cell-based, Bacillus anthracis; settings: for MIC50 / MIC90: Bacillus anthracis
[5] = target: T1, wild-type B. anthracis gyrase; experiment: biochemical; settings: EC50 (concentration that induces 50% maximal DNA cleavage)
B. anthracis = settings: rabbit, in vivo; cited from earlier work
[6] = target: T2, wild-type B. anthracis topoisomerase IV; experiment: biochemical; settings: EC50, DNA cleavage
[7] = female, BALB/c, mouse, in vivo
[8] = mouse, in vivo, po, 100 mg/kg
in vivo = settings: female, BALB/c, mouse
in vitro = settings: plasma

T1 sequence (A0A6H3A7B1 1-823): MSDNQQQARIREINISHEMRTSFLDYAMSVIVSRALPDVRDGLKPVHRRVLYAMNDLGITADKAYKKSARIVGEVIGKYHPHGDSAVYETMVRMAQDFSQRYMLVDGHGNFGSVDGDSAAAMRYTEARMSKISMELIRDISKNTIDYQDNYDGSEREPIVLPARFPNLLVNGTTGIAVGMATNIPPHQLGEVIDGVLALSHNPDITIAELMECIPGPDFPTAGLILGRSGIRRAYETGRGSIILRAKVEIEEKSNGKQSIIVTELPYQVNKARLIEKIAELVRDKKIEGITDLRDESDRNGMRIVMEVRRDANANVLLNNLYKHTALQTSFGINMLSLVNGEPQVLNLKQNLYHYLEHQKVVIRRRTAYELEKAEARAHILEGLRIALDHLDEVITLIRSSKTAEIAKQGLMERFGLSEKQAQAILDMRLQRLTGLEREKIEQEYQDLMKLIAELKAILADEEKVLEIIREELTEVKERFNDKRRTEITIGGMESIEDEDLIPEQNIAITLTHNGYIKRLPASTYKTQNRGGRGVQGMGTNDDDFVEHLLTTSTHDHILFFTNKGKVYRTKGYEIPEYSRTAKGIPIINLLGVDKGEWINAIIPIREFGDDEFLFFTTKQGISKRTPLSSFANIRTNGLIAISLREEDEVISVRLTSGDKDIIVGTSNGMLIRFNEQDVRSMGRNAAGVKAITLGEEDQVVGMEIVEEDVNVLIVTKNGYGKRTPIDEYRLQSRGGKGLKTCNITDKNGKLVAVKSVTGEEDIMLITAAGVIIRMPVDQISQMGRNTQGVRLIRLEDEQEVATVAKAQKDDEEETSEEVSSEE
T1 sequence (Q9X3Y6 whole entry): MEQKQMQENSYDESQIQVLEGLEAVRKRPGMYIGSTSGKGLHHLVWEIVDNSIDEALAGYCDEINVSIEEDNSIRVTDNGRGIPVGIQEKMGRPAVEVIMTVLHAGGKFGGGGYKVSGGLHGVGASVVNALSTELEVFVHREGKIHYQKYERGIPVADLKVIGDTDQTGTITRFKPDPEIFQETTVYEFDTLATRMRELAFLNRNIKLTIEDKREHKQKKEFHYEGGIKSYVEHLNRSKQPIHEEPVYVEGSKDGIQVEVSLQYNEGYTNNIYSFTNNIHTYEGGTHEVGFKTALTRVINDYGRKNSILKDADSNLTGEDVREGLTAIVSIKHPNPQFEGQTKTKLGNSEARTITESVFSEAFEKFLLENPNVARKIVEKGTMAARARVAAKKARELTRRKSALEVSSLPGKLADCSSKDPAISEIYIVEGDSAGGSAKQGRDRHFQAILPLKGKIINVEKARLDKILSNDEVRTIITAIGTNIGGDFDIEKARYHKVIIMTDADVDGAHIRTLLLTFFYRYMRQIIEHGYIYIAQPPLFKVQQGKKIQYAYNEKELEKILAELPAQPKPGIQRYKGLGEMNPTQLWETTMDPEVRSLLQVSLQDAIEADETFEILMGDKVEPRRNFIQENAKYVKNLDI
T2 sequence (A0A6H3AG07 1-807): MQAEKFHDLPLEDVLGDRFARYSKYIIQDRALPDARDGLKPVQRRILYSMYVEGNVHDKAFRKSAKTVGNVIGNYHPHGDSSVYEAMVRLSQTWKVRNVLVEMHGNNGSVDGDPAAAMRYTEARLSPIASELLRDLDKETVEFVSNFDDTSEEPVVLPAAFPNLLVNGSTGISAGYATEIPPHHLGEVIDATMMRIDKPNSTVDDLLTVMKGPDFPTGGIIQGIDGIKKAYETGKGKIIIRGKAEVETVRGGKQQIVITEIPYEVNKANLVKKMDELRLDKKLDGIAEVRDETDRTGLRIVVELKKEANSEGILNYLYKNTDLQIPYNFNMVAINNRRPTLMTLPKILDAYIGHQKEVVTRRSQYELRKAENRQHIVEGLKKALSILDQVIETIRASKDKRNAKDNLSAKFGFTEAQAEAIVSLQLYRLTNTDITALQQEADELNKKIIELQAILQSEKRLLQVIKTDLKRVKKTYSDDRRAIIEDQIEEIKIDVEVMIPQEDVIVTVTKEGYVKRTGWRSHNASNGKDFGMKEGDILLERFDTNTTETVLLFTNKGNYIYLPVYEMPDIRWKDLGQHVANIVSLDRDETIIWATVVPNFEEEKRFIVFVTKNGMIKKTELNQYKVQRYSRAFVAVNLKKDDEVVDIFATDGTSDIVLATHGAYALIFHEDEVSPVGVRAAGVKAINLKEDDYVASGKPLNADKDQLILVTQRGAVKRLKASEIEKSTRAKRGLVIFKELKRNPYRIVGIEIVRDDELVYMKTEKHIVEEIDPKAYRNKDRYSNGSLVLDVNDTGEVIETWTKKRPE
T2 sequence (A0AAC8SCF4 1-654): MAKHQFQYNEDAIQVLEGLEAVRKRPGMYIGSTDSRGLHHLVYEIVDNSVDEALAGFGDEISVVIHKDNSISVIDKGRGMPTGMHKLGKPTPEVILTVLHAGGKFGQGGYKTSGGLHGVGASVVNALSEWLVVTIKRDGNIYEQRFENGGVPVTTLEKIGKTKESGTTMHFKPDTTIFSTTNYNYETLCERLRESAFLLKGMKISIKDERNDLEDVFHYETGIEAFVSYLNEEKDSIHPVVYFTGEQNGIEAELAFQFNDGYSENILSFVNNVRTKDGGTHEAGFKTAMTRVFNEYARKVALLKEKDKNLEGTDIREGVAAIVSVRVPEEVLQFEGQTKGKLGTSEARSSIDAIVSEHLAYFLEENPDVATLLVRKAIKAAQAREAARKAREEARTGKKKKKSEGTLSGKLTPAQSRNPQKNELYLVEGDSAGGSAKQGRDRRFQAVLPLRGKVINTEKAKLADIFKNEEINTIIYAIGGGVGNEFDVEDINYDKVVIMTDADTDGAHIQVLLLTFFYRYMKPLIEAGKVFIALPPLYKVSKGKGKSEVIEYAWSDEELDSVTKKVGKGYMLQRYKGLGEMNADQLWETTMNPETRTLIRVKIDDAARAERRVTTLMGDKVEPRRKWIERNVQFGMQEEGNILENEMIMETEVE

## O=C(O)c1cn(C2CC2)c2cc(N3CCNCC3)c(F)cc2c1=O [Ciprofloxacin, ciprofloxacin]
[1]
  IC50: ~118 µM and 118 µM
[2]
  IC50: ~178 µM and 178 µM
[3]
  Mice that survived to study termination on day 30 (of 10): 10

## O=c1ccc2ncc(=O)n3c2n1C[C@H]3CN1CCC(NCc2cc3c(cn2)OCCC3)CC1 [Gepotidacin, gepotidacin, reference compound]
[4]
  Range of MIC values: 0.12 to 8 µg/mL
  MIC50: 0.5 µg/mL (≈ 1.11 µM)
  MIC90: 0.5 µg/mL (≈ 1.11 µM)
[5]
  EC50: 0.8 µM and ~0.8 µM
[1]
  IC50: ~23.2 µM and 23.2 µM
[2]
  IC50: ~0.2 µM and 0.2 µM
B. anthracis
  Rabbits that survived for at least 30 days: Ten out of 11

## COc1ccc2ncc(F)c(C[C@H](O)[C@H]3OC[C@H](NCc4cnc5c(n4)NC(=O)CO5)CO3)c2n1 [OSUAB-0284, 6-(((trans-2-((S)-2-(3-fluoro-6-methoxy-1,5-naphthyridin-4-yl)-1-hydroxyethyl)-1,3-dioxan-5-yl)amino)methyl)-2H-pyrazino[2,3-b][1,4]oxazin-3(4H)-one]
[4]
  Range of MIC values: ≤0.03 to 4 µg/mL
  MIC50: 0.06 µg/mL (≈ 0.123 µM)
  MIC90: 0.25 µg/mL (≈ 0.514 µM)
[5]
  EC50: 0.7 µM and ~0.7 µM
[1]
  IC50: ~6.3 µM and 6.3 µM
[6]
  EC50: 0.04 µM and ~0.04 µM
[2]
  IC50: ~0.1 µM and 0.1 µM
[3]
  Lung total bacterial burden and spore counts compared with the ciprofloxacin group: No significant differences
  Survival: 100% and 90% and 90–100%
[7]
  dose-corrected exposure, higher vs lower dose group: 1.5 fold
[7]; iv, 10 mg/kg
  Lung AUC0-last: 4,830 ng*h/mL
  Lung AUCinf: 5,033 ng*h/mL
[7]; po, 10 mg/kg
  Lung AUC0-last: 3,314 ng*h/mL
  Lung AUCinf: 3,615 ng*h/mL
[7]; po, 50 mg/kg
  Lung AUC0-last: 37,227 ng*h/mL
  Lung AUCinf: 44,292 ng*h/mL
[8]
  Adverse events or cage-side observations: No adverse events or cage-side observations were noted
In vivo
  Kp: 0.36 to 0.53
  half-life: 2.6 h
In vivo; 10 mg/kg
  bioavailability: 80.6%
In vivo; iv, 10 mg/kg
  AUC(0-inf): 11400 ng·h/mL
  AUC(0-t): 10800 ng·h/mL
  Cmax: 17600 ng/mL
  Tmax: 0.0833 h
  half-life: 2.6 h
In vivo; po, 10 mg/kg
  AUC(0-inf): 9160 ng·h/mL
  AUC(0-t): 8470 ng·h/mL
  Cmax: 6280 ng/mL
  Tmax: 0.25 h
  half-life: 2.6 h
In vivo; po, 50 mg/kg
  AUC(0-inf): 70200 ng·h/mL
  AUC(0-t): 63000 ng·h/mL
  Cmax: 50300 ng/mL
  Tmax: 0.25 h
  half-life: 2.6 h
In vitro
  fraction unbound: 0.31

Source: paper PMC12797228 (ACS Infectious Diseases, 2025)
